Source: the METLIN SMRT retention time set (Domingo-Almenara et al. 2019)

Assay: gradient 5% acetonitrile 3 min, to 50% in 2 min, to 85% in 15 min, held 3 min, 100 µL/min
Conditions: column: Zorbax Extend-C18 2.1 x 50 mm; eluents: water / acetonitrile, 0.1% formic acid
Outline: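 Pure standards were analyzed in mixtures of ~100 molecules using HPLC coupled to a quadrupole time-of-flight mass spectrometer, in both positive and negative ionization mode. Separation used a Zorbax Extend-C18 column (2.1 × 50 mm, 1.8 μm) at 100 μL/min, with water and acetonitrile each containing 0.1% formic acid. Dead and dwell volumes were 40 μL and 900 μL, and data were collected over 3 months. Retention time was read from computationally picked adduct peaks, each inspected manually.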

Compound	RP-LC retention time
COCCc1noc(C2CN(C(=O)Cn3ccnc3)C2)n1	580 s
O=C(CN1c2ccc(Br)cc2-c2ccccc2S1(=O)=O)NCc1cccnc1	686 s
Cc1cc2[nH]c(C(=O)Nc3ccc(F)cc3Br)c(CN(C)C)c2s1	678 s
Cc1ccc(NC(=O)N2CCC(n3c(C(F)(F)F)nc4cccnc43)CC2)cc1	856 s
CCC(C)CN(CC(=O)N1CCc2sccc2C1COc1ccccc1F)C(=O)COC (centres undefined)	958 s
COc1ccc(OC)c(NC(=O)CSc2cc(N3CCN(c4ccccc4OC)CC3)ncn2)c1	791 s
CCOc1ccc(Cl)cc1S(=O)(=O)N1CCC(C(=O)Nc2ccc3c(c2)OCCO3)CC1	1150 s
CCOc1ccc(-c2nc(-c3ccc4c(c3)oc(=O)n4C)no2)cc1OCC	1110 s
Cc1ccc(-c2cc3c(=O)n(Cc4noc(CN5CCC(C)CC5)n4)ccn3n2)cc1	713 s
c1cncc(-c2nc(-c3ccnc(N4CCOCC4)c3)no2)c1	953 s
Cc1ccc(-c2csc(-n3nc(C)c(CC(=O)N4CCCC4)c3C)n2)cc1	1090 s
O=C(NC1CCN(Cc2ccccc2)CC1)c1nnc(-c2ccc(S(=O)(=O)N3CCCC3)cc2)o1	1190 s
COC(=O)c1ccccc1S(=O)(=O)Nc1ccc2c(c1)CCC(=O)N2C	748 s
CCOC(=O)c1c(S(=O)(=O)N2CCC(C(=O)Nc3ccc(F)cc3)CC2)c(C)n(CC)c1C	897 s
CCc1cccc(NC(=O)Cn2nc(C(=O)N3CCOCC3)c3ccccc32)c1	840 s
O=C(Nc1ncnc2sccc12)C1COc2ccccc2O1 (centres undefined)	718 s
CCOC(=O)c1c(C)oc2nc(C)nc(NCc3cccc(Cl)c3)c12	1330 s
O=C(c1ccc(F)cc1)N1CCC(C(=O)N2CCc3ccccc32)CC1	822 s
O=C(Cn1nc2nc(N3CCCC3)ccn2c1=O)N1CCN(c2ccc(F)cc2)CC1	661 s
COc1ccc(OC)c(NC(=O)Cn2c(C)cc(-c3nnc(C4CC4)o3)c2C)c1	830 s
Cn1nc(C(=O)NCc2ccc3c(c2)OCO3)c2c1CCN(C(=O)c1ccco1)C2	725 s
COc1ccc(Cn2c(C)c(CNCc3ccccn3)c(C(=O)O)c2C)cc1	690 s
CN(CC1CCOC1)C(=O)c1ccc(F)c(Cl)c1 (centres undefined)	724 s

Compound	RP-LC retention time
CCCC(=O)Nc1ccc2c(c1)nc(CN1CCCC1)n2C(C)C	586 s
O=C(NCc1ccc2c(c1)OCO2)C1CCN(c2cn[nH]c(=O)c2)C1 (centres undefined)	627 s
CCc1ccc(NC(=O)N2CCCC(C)(C(=O)NCc3cccc(OC)c3)C2)cc1 (centres undefined)	968 s
O=S(=O)(c1cccc2c(I)cccc12)N1CCCNCC1	673 s
CCCc1cc(N2CCN(C(=O)Cc3cccs3)CC2)nc2nnc(C)n12	620 s
CC(=O)N(Cc1nn(C)c2c1CN(Cc1cn[nH]c1-c1cccs1)CC2)c1ccccc1	589 s
CCOC(=O)C1=C(C)NC2=C(C(=O)C(C(=O)OC)C(C)C2)C1c1ccc(N(C)C)cc1 (centres undefined)	631 s
CC[C@H](Nc1ncnc2nc[nH]c12)c1nc2cccc(F)c2c(=O)n1-c1ccccc1	714 s
COC(=O)C1=CN(c2cc(OC)cc(OC)c2)c2ccccc2S1(=O)=O	848 s
CCn1cnc2ccc(-c3noc(COc4ccc(F)cc4)n3)cc21	754 s
Cc1nnc2ccc(-c3noc(Cc4ccc(F)cc4)n3)cn12	805 s
Cc1ccccc1S(=O)(=O)N1[C@H]2CC[C@@H]1c1cnc(-c3ccc(F)cc3)nc1C2	1210 s
CCCCc1nnc(NC(=O)C2CC(=O)N(CCc3c[nH]c4ccc(C)cc34)C2)s1 (centres undefined)	802 s
O=C(NCC1(N2CCOCC2)CCOC1)Nc1cc(Cl)cc(Cl)c1 (centres undefined)	657 s
CC(C)N1CCN(C(=O)C2CC(=O)N(c3ccc4c(c3)CCN4C(=O)C3CC3)C2)CC1 (centres undefined)	579 s
N#Cc1c(N)nc(N)nc1Nc1ccc(Br)cc1	777 s
CC(C)n1nnc2cc(C(=O)N(C)CC(=O)Nc3ccc(F)c(Cl)c3)ccc21	790 s
CCc1nnc(-c2cn(CC(=O)Nc3c(Cl)cc(OC)cc3OC)c3ccccc23)o1	909 s
O=c1n(Cc2ccccc2)nc2c(S(=O)(=O)N3CCOCC3)cccn12	721 s
Cc1ccc(CNC(=O)N2[C@H]3CC[C@@H]2c2cncnc2C3)cc1	735 s
Cc1cc(C(=O)Nc2nc3c(s2)CN(C(=O)c2nc4ccccc4s2)CC3)no1	870 s
Cc1cc(N2CCOCC2)nc(Nc2ccc(NC(=O)C(C)Oc3ccccc3)cc2)n1 (centres undefined)	580 s
CCCC(=O)N1CCc2c([nH]c3ccccc23)C1c1ccccc1 (centres undefined)	1080 s

Compound	RP-LC retention time
O=C(CCc1ccc2nc(-c3ccccc3)[nH]c2c1)NC1CCCC1	618 s
Cc1ccc(-c2cnc(N3CCCC(C(=O)NCCC4=CCCCC4)C3)nc2)cc1 (centres undefined)	1290 s
CCCCCC(=O)N1CCCC1	805 s
O=C(Nc1ccc(F)cc1F)N1CCC(N2CCN(Cc3ccc(F)cc3)C2=O)CC1	802 s
Cc1ccc(Nc2c(-c3ccc(N(C)C)cc3)nc3ccc(Br)cn23)cc1	838 s
Cc1ccn(C(=O)c2ccc(NC(=O)CC(C)C)cc2)n1	804 s
COC(=O)c1c(NC(C)C)c2cccc(Cl)c2[nH]c1=O	725 s
CCOC(=O)c1cc(S(=O)(=O)N2CC3CC(C2)c2cccc(=O)n2C3)cn1C (centres undefined)	704 s
Cc1ccc(N2CCC(NC(=O)C(C)(C)C)C2=O)cc1C (centres undefined)	802 s
O=C(CCn1nnc2cc(-c3noc(-c4ccc(F)cc4)n3)ccc21)N1CCOCC1	849 s
CS(=O)(=O)N1CCc2cc(C(=O)N3CCC(C(N)=O)CC3)ccc21	583 s
CC(C)OCCCNC(=O)c1cn(C)cc2c(=O)n(-c3ccccc3)nc1-2	851 s
Cn1c(=O)n([C@H]2CCN(C(=O)C3CC3)C2)c2ncccc21	639 s
Cc1noc(C)c1-c1ccc(S(=O)(=O)N2CCCCC2)cc1	961 s
COc1ccc(N2CCN(C(=O)c3c(C)oc4nc(C)nc(N5CCCC5)c34)CC2)cc1	694 s
CC1=C(c2ccc(C)c(C)c2)S(=O)(=O)N=C1N1CCCN(C(=O)c2ccncc2)CC1	692 s
COc1ccc(S(=O)(=O)N2CC(C(=O)NC3CCCCC3)Oc3cc(C)ccc32)cc1 (centres undefined)	1170 s
Cc1ccc2c(Nc3ccc(Cl)cc3)c(C(=O)N3CCOCC3)cnc2n1	608 s
CCOC(=O)c1cnc(N2CCN(c3ccccc3F)CC2)[nH]c1=O	908 s
Cc1ccn2cc(C(=O)NCCC(C)C)nc2c1	640 s
Cc1ccc(Nc2c(-c3cc(Br)ccc3O)nc3ncccn23)cc1Cl	1170 s
O=C(NCc1ccc(F)cc1)c1nnc(-c2ccc(S(=O)(=O)N3CCCC3)cc2)o1	888 s
CCOC(=O)c1cccc(NC(=O)Cn2ccc3ccc(-c4nnc(CC)o4)cc32)c1	910 s

Compound	RP-LC retention time
CCOc1ccc(-c2ccc(N3CCN(C(=O)c4ccc5ncsc5c4)CC3)nn2)cc1	629 s
Cc1sc(NC(=O)Cc2csc(-c3ccccc3)n2)nc1-c1ccc(Cl)cc1	1280 s
CCn1cc(-c2ccc(F)cc2)cc1C(=O)NCc1ccccn1	722 s
Cc1ccc(-c2noc(Cn3c(=O)n(-c4cccc(C)c4)c(=O)c4sccc43)n2)cc1	1070 s
CCOC(=O)c1c(C)[nH]c(C(=O)N2CCC(CC(=O)NCCN3CCOCC3)CC2)c1C	575 s
Cc1c(C)n(C)c2ccc(C(=O)NCC(C)C)cc12	909 s
COc1ccc(Cl)cc1NC(=O)c1cc(S(=O)(=O)N2CCC(C)CC2)cn1C	1210 s
O=c1c2cnc3ncnn3c2ccn1C1CC1	583 s
Fc1ccc(-n2cc(-c3noc(-c4nccc5ccccc45)n3)nn2)cc1	1120 s
CCCN1CCN(c2cc(C(=O)O)c3cc(NS(=O)(=O)c4ccc(CC)cc4)ccc3n2)CC1	642 s
CC1(C(=O)Oc2ccc(Cl)cc2)Cc2ccccc2C(=O)O1 (centres undefined)	942 s
COc1cc(NC(=O)C(C)Oc2ccc(=O)n(-c3ccc(F)cc3)n2)cc(OC)c1 (centres undefined)	794 s
CC(=O)N1CCc2cc(N3CC(C(=O)Nc4ccccc4)CC3=O)ccc21 (centres undefined)	677 s
CN(C)c1ccc(CNC(=O)CN2C(=O)CCc3cc(Br)ccc32)cc1	651 s
Cc1cccc(N2CCN(C(=O)CN3C(=O)CN(C)C(=O)c4ccccc43)CC2)c1C	812 s
COc1cc(-c2nnc(-c3cccc(S(=O)(=O)N4CCOCC4)c3)o2)cc(OC)c1OC	852 s
O=C(c1cn(-c2cc(N3CCSCC3)ncn2)cn1)N1CCN(C2CCCCC2)CC1	635 s
COc1cc(CNC(=O)c2ccc(Cc3c(C)noc3C)o2)cc(OC)c1OC	744 s
CCOC(=O)c1nc(N2CCN(C3CCCCC3)CC2)c2ccccc2n1	614 s
CC(NS(=O)(=O)CCCOc1ccc2c(c1)OCO2)c1ccccc1 (centres undefined)	750 s
